According to US4956389A, “Compounds having calcium blocking activity” (priority 1982, dated 1990):
Where two headings read alike, the source gives them in different places.

Key:
[1] = Acute toxicity (Litchfield and Wilcoxon); conditions: rat, in vivo, male rats, read-out: toxicity DL50
Source text: The acute toxicity has been determined by the oral route, by the venous route in male rats according to the method of Litchfield and Wilcoxon (J. Pharm. Exp. Therap., (1949), 96, p. 99).

[2] = tested on: synaptosomes of the brain of rats; assay: Inhibition of the Ca2+-uptake in synaptosomes of the brain of rats; format: biochemical, rat; conditions: 250 μM
Procedure: The synaptosomes have been prepared from an homogenate of the brain of rats by centrifugation in the gradient of Filcoll at 23,500 rpm for a period of 30 minutes and diluted to 1.5 mg/cc in the medium constituted by:
After 15 minutes of preincubation, ^45 CaCl2, final concentration 1 mM (0.2μCi/cc is added to the medium).
The first determination has been carried out two minutes after the addition. […] After each period, the reaction has been stopped by centrifugation and the radioactivity has been determined in the supernatant as well as in the pellet. The latter had been denatured previously with PCA, neutralized and subsequently centrifuged.

aorta of rabbits = assay: Antagonistic activity on the contractions produced by arachidonic acid on the aorta of rabbits, study in vitro; parameters: species or system rabbit
Procedure: The study has been carried out by comparison with Nicardipine using autologous blood as the perfusion liquid. The addition of 0.1 mg of arachidonate to the liquid induces an isometric contraction of the aorta which is registered by a transducer. […] This phenomenon is shown by the relaxation which follows the addition of arachidonate to the perfusion blood. This effect may be noted with 0.1 mg/kg of YS 035 and 1 mg/kg of Nicardipine.

phosphodiesterase = assay: Inhibition of the phosphodiesterase activity (method of K. G. Nair); format: biochemical
Procedure: The inhibition of phosphodiesterase activity of YS 035 and of papaverine has been assessed according to the method of K. G. Nair (Biochemistry, 5, 150, 1966).
It has been used a medium containing:
2.5 ml of buffer tris-HCl 0.1M pH 7.4;
50 μl CAMP "Sigma" (1 mg/ml);
5 μl Adenosin deaminase (2 mg/ml);
20 μl of alkaline phosphatase "Sigma" (2.6 mg/ml);
15 μl of phosphodiesterase (10 mg/ml).
YS 035 has been added up to a final concentration of 100 mM and Papaverine to a concentration of 10 mM.

COc1ccc(CCN(C)CCc2ccc(OC)c(OC)c2)cc1OC [YS 035, N-methyl-N-bis-(3,4-dimethoxy-phenyl-ethyl)amine]
LD50 ([1]; iv, venous route): 19 mg/kg
LD50 ([1]; oral route): 178 mg/kg
inhibitory activity on the calcium uptake (in words) [2]: comparable to the activity exhibited by Nifedipine
Ca2+-uptake ([2]; 45CaCl2 1 mM, control 80 ± 7): 47 ± 4 n g ions/mg prot/15 min
Contraction of the first portion of the aorta (aorta of rabbits; N = 4): 48 ± 6.7 mm
inhibition at 0.01 mg/kg (aorta of rabbits; Oryctolagus cuniculus, dose 0.01 mg·Kg^-1, read-out: Contraction of the second and third portion of the aorta, % Variation): 42 ± 31%
inhibition at 0.1 mg/kg (aorta of rabbits; Oryctolagus cuniculus, dose 0.1 mg·Kg^-1, second and third portion, read-out: % Variation, small contractions observed occasionally prior to relaxation (value in brackets)): 60 ± 29.3%
inhibition at 1 mg/kg (aorta of rabbits; Oryctolagus cuniculus, dose 1.0 mg·Kg^-1, read-out: Contraction of the second and third portion of the aorta, % Variation): 132 ± 16.1%
inhibition at 1 mg/kg (aorta of rabbits; Oryctolagus cuniculus, line without dose, below dose 1.0 mg·Kg^-1, read-out: Contraction of the second and third portion of the aorta, % Variation): 16%
minimal effective dose (aorta of rabbits; Oryctolagus cuniculus, autologous blood perfusion, 0.1 mg arachidonate, read-out: dose at which relaxation following the addition of arachidonate is noted): 0.1 mg/kg
inhibitory effect on the contraction produced by the arachidonate (in words) (aorta of rabbits; YS 035 compared with Nicardipine): comparable
inhibiting activity on the phosphodiesterases (in words) (phosphodiesterase; general statement): completely devoid of inhibiting activity on the phosphodiesterases
inhibition of phosphodiesterase activity (in words) (phosphodiesterase; up to a final concentration of 100 mM): completely inactive
